Read-outs that look alike come from different tables or passages of the source.
Tests used:
[1] = tested on: carbapenem resistant Enterobacteriaceae (CRE); test: MIC of cefiderocol with Compound 1 vs approved BL/BLI combinations, 120 CRE isolates; details: Klebsiella pneumoniae, IDM
Procedure: A panel of 30 strains of characterized Enterobacteriaceae isolates produce Ambler class A, B, C, and D β-lactamase were used. […] IDM was prepared by adding 100 g of chelex (a chelating agent) to 1 L of sterile CAMBH and stirring for 2 hours. The chelex treated media was then filtered using a 0.2 μm filter and divalent Ca, Mg, and Zn are added back at relevant concentrations. The pH was adjusted to 7.2 using HCl and the media was filtered again to ensure sterility. This created a medium that was devoid of iron but retains appropriate concentration of other cations and was necessary for evaluating the activity of cefiderocol originating from its uptake by bacterial iron transporters. Bacteria strains were grown for 3-5 hours in CAMHB and IDM. Cefiderocol was added either to a microtiter plate in 2-fold serial dilutions in CAMHB and in parallel in IDM. […] Once the test articles were added the plates were inoculated according to CLSI broth microdilution method.
The challenge set of organisms consisted of a variety of Enterobacteriaceae species expressing IMP (n=30), NDM (30), VIM (15), KPC (n=30), and AmpC (n=15).

[2] = tested on: MDR-Pseudomonas; test: broth microdilution MIC of cefiderocol +/- Compound 1 in IDM, panel of 16 MDR Pseudomonas aeruginosa; assay type: cell-based, P. aeruginosa; details: for MIC: Pseudomonas aeruginosa, read-out: Minimum inhibitory concentration (MIC)
[3] = panel of 16 MDR Pseudomonas aeruginosa, IDM

CC(C)(O/N=C(\C(=O)N[C@@H]1C(=O)N2C(C(=O)[O-])=C(C[N+]3(CCNC(=O)c4ccc(O)c(O)c4Cl)CCCC3)CS[C@H]12)c1csc(N)n1)C(=O)O [FDC, cefiderocol]
1 µg/mL: MIC ([1]; Klebsiella pneumoniae 847375 (SHV-12, KPC-2)) | MIC ([1]; Klebsiella pneumoniae 847384 (SHV-12, KPC-2)) | MIC ([1]; Klebsiella pneumoniae 848562 (SHV-11, KPC-3)) | MIC ([1]; Klebsiella pneumoniae 848566 (SHV-11, KPC-3)) | MIC ([1]; Klebsiella pneumoniae 848600 (KPC-3)) | MIC ([1]; Klebsiella pneumoniae 848842 (SHV-2A, KPC-2)) | MIC ([1]; Klebsiella pneumoniae 1212352 (NDM-6)) | MIC ([1]; Klebsiella pneumoniae 1371730 (NDM-6)) | MIC ([1]; Klebsiella pneumoniae 1459396 (NDM-7)) | MIC ([1]; Klebsiella pneumoniae 1591688 (IMP-4)) | MIC ([1]; Klebsiella pneumoniae 1591702 (IMP-4)) | MIC ([1]; Klebsiella pneumoniae IHMA 511121 (IMP-26)) | MIC ([2]; P. aeruginosa 1121828, IDM)
2 µg/mL: MIC ([1]; Klebsiella pneumoniae 847383 (KPC-2)) | MIC ([1]; Klebsiella pneumoniae 847387 (SHV-12, KPC-2)) | MIC ([1]; Klebsiella pneumoniae 848561 (SHV-11, CTX-M-3, KPC)) | MIC ([1]; Klebsiella pneumoniae 848790 (KPC-2)) | MIC ([1]; Klebsiella pneumoniae 1277372 (NDM-7)) | MIC ([1]; Klebsiella pneumoniae 1385622 (NDM-4)) | MIC ([1]; Klebsiella pneumoniae 1420892 (IMP-4)) | MIC ([1]; Klebsiella pneumoniae IHMA 511128 (IMP-26)) | MIC ([1]; Klebsiella pneumoniae IHMA 600482 (CTX-M-15, IMP-26)) | MIC ([1]; Klebsiella pneumoniae SI-128 (IMP-5)) | MIC ([2]; P. aeruginosa 1131170, IDM) | MIC ([2]; P. aeruginosa 1179543, IDM)
0.125 µg/mL: MIC ([1]; Klebsiella pneumoniae 847379 (CTX-M-2, KPC-2)) | MIC [2]
4 µg/mL: MIC ([1]; Klebsiella pneumoniae 847378 (SHV-12, KPC-2)) | MIC ([1]; Klebsiella pneumoniae 848791 (SHV-12, KPC-2)) | MIC ([1]; Klebsiella pneumoniae 848828 (SHV-12, KPC-2)) | MIC ([1]; Klebsiella pneumoniae 848844 (SHV-11, KPC-2)) | MIC ([1]; Klebsiella pneumoniae 1212142 (NDM-6)) | MIC ([1]; Klebsiella pneumoniae 1212258 (NDM-6)) | MIC ([1]; Klebsiella pneumoniae 1212290 (NDM-6)) | MIC ([1]; Klebsiella pneumoniae 1212347 (NDM-6)) | MIC ([1]; Klebsiella pneumoniae 1286102 (NDM-7)) | MIC ([1]; Klebsiella pneumoniae 1286206 (NDM-7)) | MIC ([1]; Klebsiella pneumoniae 1371650 (NDM-6)) | MIC ([1]; Klebsiella pneumoniae 1379123 (NDM-4)) | MIC ([1]; Klebsiella pneumoniae 1385586 (NDM-4)) | MIC ([1]; Klebsiella pneumoniae 1607267 (IMP-4)) | MIC ([1]; Klebsiella pneumoniae IHMA 511163 (IMP-26)) | MIC ([2]; P. aeruginosa 40, IDM) | MIC ([2]; P. aeruginosa 451, IDM) | MIC ([2]; P. aeruginosa CDC-0103, IDM) | MIC90 [2, 3]
16 µg/mL: MIC ([1]; Klebsiella pneumoniae 1369251 (NDM-6))
0.059 µg/mL: MIC ([1]; Klebsiella pneumoniae IHMA 469384 (IMP-26, SHV-12)) | MIC ([2]; P. aeruginosa CDC-0095, IDM) | MIC ([2]; P. aeruginosa CDC-0111, IDM)
0.5 µg/mL: MIC ([1]; Klebsiella pneumoniae 847204 (KPC-2)) | MIC ([1]; Klebsiella pneumoniae 847747 (CTX-M-2, KPC)) | MIC ([1]; Klebsiella pneumoniae 848563 (KPC-3)) | MIC ([1]; Klebsiella pneumoniae 848788 (KPC-2)) | MIC ([1]; Klebsiella pneumoniae 848832 (KPC-2)) | MIC ([1]; Klebsiella pneumoniae 890066 (SHV-33; TEM-33; CTX-M-15; IMP-1)) | MIC ([1]; Klebsiella pneumoniae 1251598 (VIM-26)) | MIC ([1]; Klebsiella pneumoniae 1251599 (VIM-26)) | MIC ([1]; Klebsiella pneumoniae 1277416 (IMP-26)) | MIC ([1]; Klebsiella pneumoniae 1455545 (NDM-4)) | MIC ([1]; Klebsiella pneumoniae 1621162 (VIM-12)) | MIC ([1]; Klebsiella pneumoniae CDC-0080 (IMP-4, TEM-1B, OKP-B-2, OXA-1, SFO-1)) | MIC ([2]; P. aeruginosa 635, IDM) | MIC ([2]; P. aeruginosa CDC-0054, IDM) | MIC ([2]; P. aeruginosa CDC-0064, IDM) | MIC50 [2, 3]
0.25 µg/mL: MIC ([1]; Klebsiella pneumoniae 1251600 (VIM-26)) | MIC ([1]; Klebsiella pneumoniae 1251604 (VIM-26)) | MIC ([1]; Klebsiella pneumoniae 1610707 (VIM-24)) | MIC ([1]; Klebsiella pneumoniae CDC-0034 (IMP-4, TEM-1B, SHV-11)) | MIC ([2]; P. aeruginosa 152021, IDM) | MIC ([2]; P. aeruginosa 1013996, IDM) | MIC ([2]; P. aeruginosa CDC-0108, IDM)
8 µg/mL: MIC ([1]; Klebsiella pneumoniae 1369220 (NDM-6)) | MIC ([1]; Klebsiella pneumoniae 1369306 (NDM-6)) | MIC ([1]; Klebsiella pneumoniae 1385577 (NDM-4)) | MIC ([1]; Klebsiella pneumoniae 1455463 (NDM-4)) | MIC ([1]; Klebsiella pneumoniae 1459398 (NDM-7)) | MIC ([2]; P. aeruginosa CDC-0110, IDM)

— patent US20220054513A1, “COMBINATION COMPOSITIONS COMPRISING A BETA-LACTAMASE INHIBITOR” (VenatoRx Pharmaceuticals, Inc., priority 2018, published 2022)
